This is an account of results in patent US20080014289A1, “Vehicle and method for treating and preventing acne vulgaris and exfoliating the skin hypohalous acids” (priority 2006, published 2008).

Read-outs that look alike come from different tables or passages of the source.

For series [1] the following is noted: cited from earlier work.
The conditions of series [2]: cited from earlier work. The source holds these as a separate data set.
The test system of series [3] is cells. Conditions: equimolar basis, compared with HOCl; cited from earlier work.
The subject of series [4] is acne vulgaris. The series is described as follows: Preclinical trial of washing solution, anti-acne activity. Format: in vivo. The text has this: The concentration of HOCl in the washing solution may be higher than this value depending on where the washing solution is to be applied, e.g. when treating a patient's back for trunk acne, the concentration of HOCl in the washing solution may be as high as 60 ppm for maximum effect in the short term because the thickness of skin on this section of a body is around 3 mm (as compared to a skin thickness of 0.1 mm at the chin section of the face).
Treatment is divided into two stages, treatment period and maintenance period. User should conduct the treatment daily during treatment period until no acne break out; then can switch to maintenance period.
• 1. Wash the face regularly with soap completely removing oil and grime from the surface of the skin. Concentrate on areas of the skin prone to suffering from acne, such as forehead, chin, jawline, around the lips and nose. • 2. Prepare the washing solution as indicated in Examples 1A-1I. • 3. Submerge your face fully into the washing solution, in order to extend time for skin contacting with the solution, moving the head as much as practical while submerged. […]

Series [5] has as its system bacteria. The conditions noted are these: hot tubs, spas and swimming pools; cited from earlier work.

For the molecule `OBr` [OBr^−, hypobromite], the “% bromine as OBr−” value in series [1] (water pH 6.0) is listed as 0.0%; in series [1] (water pH 6.5), 0.6%; in series [1] (water pH 7.0), 2%; in series [1] (water pH 7.5), 6.0%; in series [1] (water pH 8.0), 17.0%; in series [1] (water pH 8.5), 43.0%.

Turning to Hypochlorite ion [OCl^−], the “% chlorine as OCl−” value in series [2] (water pH 6.5) is 10%; in series [2] (water pH 7.0) it was 27%; in series [2] (water pH 7.2) it was 34%; in series [2] (water pH 7.6) it was 55%; in series [2] (water pH 8.0), 79%; in series [2] (water pH 8.5) it was 90%.

As for `OBr` [HOBr, hypobromous acid], in series [3], the “efficiency as a lytic agent, factor relative to HOCl” value is given as 10. Also, the “anti-acne activity compared with hypochlorous acid” value in series [4] was “slightly less effective than hypochlorous acid”. Also, the “% of bromine as HOBr” value in series [1] (water pH 6.0) is recorded as 100%; in series [1] (water pH 6.5) it was 99.4%; in series [1] (water pH 7.0), 98%; in series [1] (water pH 7.5), 94.0%; in series [1] (water pH 8.0) it was 83.0%; in series [1] (water pH 8.5), 57.0%.

For the molecule `OCl` [HOCl, hypochlorous acid], in series [2] (pH above 7.5), the “FAC existing as active HOCl” value is listed as less than 50%. The “% of Chlorine as HOCl” value in series [2] (water pH 6.5) is 90%; in series [2] (water pH 7.0) it was 73%; in series [2] (water pH 7.2), 66%; in series [2] (water pH 7.6), 45%; in series [2] (water pH 8.0) it was 21%; in series [2] (water pH 8.5) it was 10%. Further, the “share of FAC in the active HOCl form” value in series [2] (water pH 7.5) is roughly 50%. In series [5], the “time needed to completely destroy a given concentration of bacteria” value is 30 s.
